A short description of data set [1]: Half life in ICR mouse at 10 mg/kg,po measured upto 24 hrs. The conditions noted are these: in vivo. It counts as ADME, organism-based.
The nature of data set [2]: Cmax in ICR mouse at 1 mg/kg,iv measured upto 24 hrs. It counts as ADME, organism-based. Also on record: time < 24 hrs, dose 1 mg/kg, route iv. To be noted: in vivo.
Data set [3] is described as follows: Cmax in ICR mouse at 10 mg/kg,po measured upto 24 hrs. The format is ADME, organism-based. Set-up: time < 24 hrs, dose 10 mg/kg, route po. To be noted: in vivo.
Data set [4] is described as follows: Oral bioavailability in ICR mouse at 10 mg/kg measured upto 24 hrs. It counts as ADME, organism-based. The conditions noted are these: in vivo.
Data set [5] can be described thus: Clearance in ICR mouse at 1 mg/kg,iv measured upto 24 hrs. The format is ADME, organism-based. To be noted: in vivo.
Data set [6] in a line: Volume of distribution at steady state in ICR mouse at 1 mg/kg,iv measured upto 24 hrs. To be noted: in vivo, read-out: Vdss. The format is ADME, organism-based.
Data set [7] is described as follows: AUClast in ICR mouse at 1 mg/kg,iv measured upto 24 hrs. It counts as ADME, organism-based. Also on record: dose 1 mg/kg, time < 24 hrs, route iv. The conditions noted are these: in vivo.
The nature of data set [8]: AUClast in ICR mouse at 10 mg/kg,po measured upto 24 hrs. Set-up: time < 24 hrs, dose 10 mg/kg, route po. To be noted: in vivo. It counts as ADME, organism-based.
Data set [9] is described as follows: Tmax in ICR mouse at 10 mg/kg,po measured upto 24 hrs. The conditions noted are these: in vivo. It counts as ADME, organism-based.
A short description of data set [10]: Half life in ICR mouse at 1 mg/kg,iv measured upto 24 hrs. The format is ADME, organism-based. To be noted: in vivo.
The nature of data set [11]: Cmax in C57BL/6 mouse at 1 mg/kg,po measured upto 24 hrs. The format is ADME, organism-based. Set-up: dose 1 mg/kg, time < 24 hrs, route po. The conditions noted are these: in vivo.
Data set [12] can be described thus: Half life in mouse Hepatocyte. It counts as ADME, cell-based. The conditions noted are these: hepatocytes.
Data set [13] is described as follows: Half life in human liver microsomes. It counts as ADME, Microsome. A general note: Microsomes from liver hold many membrane-bound enzymes, among them those of drug oxidation.
Data set [14] can be described thus: Half life in monkey liver microsomes. It counts as ADME, Macaca mulatta, Microsome. To be noted: rhesus monkey.
The nature of data set [15]: Half life in rat liver microsomes. The format is ADME, Microsome.
A short description of data set [16]: Half life in dog liver microsomes. The format is ADME, Canis lupus familiaris, Microsome.
Data set [17] can be described thus: Oral bioavailability in rat at 10 mg/kg measured upto 24 hrs. It counts as ADME, organism-based. The conditions noted are these: in vivo.
Data set [18] in a line: Aqueous solubility of compound in SGF at pH 2.26. The format is physicochemical.
Data set [19] can be described thus: Aqueous solubility of compound in FeSSIF at pH 4.83. It counts as physicochemical.
Data set [20] is described as follows: Apparent permeability across apical to basolateral side in human Caco-2 cells. It counts as ADME, cell-based. Background: Passage across Caco-2 layers is used to estimate intestinal permeability.
Data set [21] in a line: Drug distribution in C57BL/6 mouse plasma at po administration. It counts as ADME, organism-based. To be noted: in vivo.
A short description of data set [22]: Apparent permeability across basolateral to apical side in human Caco-2 cells. The format is ADME, cell-based.
The nature of data set [23]: Oral bioavailability in dog at 10 mg/kg measured upto 24 hrs. It counts as ADME, organism-based, Canis lupus familiaris. The conditions noted are these: in vivo.
Data set [24] in a line: Half life in mouse liver microsomes. The format is ADME, Microsome.
Data set [25] in a line: Aqueous solubility of compound in FaSSIF at pH 6.28. The format is physicochemical.

Values after ≈ are worked out from the molar mass of the structure shown.

A word on the half-life: it is how long it takes for the measured level to halve. As a reminder, the Cmax is the highest concentration seen after dosing. In general, clearance refers to a measure of how efficiently the substance is removed, as volume per time. A word on the AUC(0-t): it is the area under the concentration-time curve up to a stated or last time point. The term Tmax denotes the time from dosing to the highest level. As to `O=C(/C=C/c1ccc2c(c1)OC(F)(F)O2)N1CCN(C(=O)N2CCC2)CC1`, the half-life in data set [1] is 1.43 h; in data set [10] it was 0.42 h. The values for the Cmax in [2] and in [3] were 1000 ng/mL and 4900 ng/mL, respectively. Besides, the bioavailability in [4] came to 116%. In data set [5], the clearance came to 27.9 mL/min/kg. Also, the Vd in [6] is 0.94 L/kg. The AUC(0-t) at 24 h in data set [7] came out at 586 ng·h/mL; in data set [8], 6840 ng·h/mL. Also, the Tmax in data set [9] came to 0.25 h.
Broadly, the solubility is the dissolved amount per volume that the medium holds. For orientation: Papp A→B means how fast a substance crosses the layer from the apical side. The term Papp B→A denotes the apparent permeability from the basolateral to the apical side of a cell layer. Turning to `COc1ncc(C(=O)N2CCN(C(=O)/C=C/c3ccc4c(c3)OC(F)(F)O4)CC2)cn1`, the values for the highest concentration (Cmax) in data set [11] and in data set [3] were 878 ng/mL and 5900 ng/mL, respectively. Further, the half-life in data set [12] is 22.2 h; in [13], > 3.11 h; in data set [14], > 3.11 h; in data set [15], > 3.11 h; in data set [16] it was > 3.11 h; in data set [24], > 3.11 h. The bioavailability in data set [17] and in data set [23] was > 100% in each case. Moreover, the solubility in [18] came to 63 µM (≈ 27.2 µg/mL); in data set [19], 134 µM (≈ 57.9 µg/mL); in [25], 40 µM (≈ 17.3 µg/mL). The same compound registered a clearance in data set [5] of 3.98 mL/min/kg. In addition, in [20], the Papp A→B amounted to 19.6 ×10⁻⁶ cm/s. Also, in data set [21], the Drug uptake result was “Dose-Dependent Effect”. Moreover, the apparent permeability from basolateral to apical (Papp B→A) in [22] came to 16 ×10⁻⁶ cm/s. Besides, the results for the area under the curve AUC(0-t) at 24 h in data set [7] and in [8] were 4190 ng·h/mL and 49700 ng·h/mL, respectively. Moreover, the time of peak concentration (Tmax) in data set [9] worked out at 1.33 h.

These data come from ChEMBL document CHEMBL5375977, “Discovery of a First-in-Class GPR183 Antagonist for the Potential Treatment of Rheumatoid Arthritis” (J Med Chem, 2023).
